Reference: PubChem BioAssay (NCI)
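Interpolation was linear, between the two tested concentrations surrounding the appropriate level; five concentrations were tested over 48 hours in 96-well plates. Here, GI50 denotes the concentration required for 50% inhibition of growth. TGI denotes the concentration required for complete inhibition of growth.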

Key:
Test in all cases: growth of human tumour cells (NCI), 48 h
NCI-H23 lung = system: NCI-H23 lung
NCI-H460 lung = system: NCI-H460 lung
NCI-H522 lung = system: NCI-H522 lung
NCI/ADR-RES ovarian = system: NCI/ADR-RES ovarian
OVCAR-3 ovarian = system: OVCAR-3 ovarian
OVCAR-4 ovarian = system: OVCAR-4 ovarian
OVCAR-5 ovarian = system: OVCAR-5 ovarian
OVCAR-8 ovarian = system: OVCAR-8 ovarian
PC-3 prostate = system: PC-3 prostate
RPMI-8226 leukemia = system: RPMI-8226 leukemia
RXF 393 renal = system: RXF 393 renal
SF-268 CNS = system: SF-268 CNS
SF-295 CNS = system: SF-295 CNS
SF-539 CNS = system: SF-539 CNS
SK-MEL-2 melanoma = system: SK-MEL-2 melanoma
SK-MEL-28 melanoma = system: SK-MEL-28 melanoma
SK-MEL-5 melanoma = system: SK-MEL-5 melanoma
SK-OV-3 ovarian = system: SK-OV-3 ovarian
SN12C renal = system: SN12C renal
SNB-19 CNS = system: SNB-19 CNS
SNB-75 CNS = system: SNB-75 CNS
SR leukemia = system: SR leukemia
SW-620 colon = system: SW-620 colon
T-47D breast = system: T-47D breast
TK-10 renal = system: TK-10 renal
U251 CNS = system: U251 CNS
UACC-257 melanoma = system: UACC-257 melanoma
UACC-62 melanoma = system: UACC-62 melanoma
UO-31 renal = system: UO-31 renal

**Q.** For `O=C(Nc1ccc(Oc2ccc3nc(NC(=O)c4ccco4)[nH]c3c2)cc1)Nc1cc(C(F)(F)F)ccc1F`, which GI50 (NCI-H23 lung) is on record?
**A.** Its GI50 is 0.852 µM.

**Q.** What about the TGI (NCI-H23 lung) of the same molecule?
**A.** Its TGI is 9.08 µM.

**Q.** What about the GI50 (NCI-H460 lung) of the same molecule?
**A.** The GI50 was 1.35 µM.

**Q.** And the TGI (NCI-H460 lung)?
**A.** Its TGI is 6.85 µM.

**Q.** What about the GI50 (NCI-H522 lung) of the same molecule?
**A.** The GI50 was 3.03 µM.

**Q.** And the TGI (NCI-H522 lung)?
**A.** Its TGI is 9.55 µM.

**Q.** What about the GI50 (NCI/ADR-RES ovarian) of the same molecule?
**A.** Its GI50 is 1.71 µM.

**Q.** And the TGI (NCI/ADR-RES ovarian)?
**A.** The TGI was 11.4 µM.

**Q.** What about the GI50 (OVCAR-3 ovarian) of the same molecule?
**A.** The GI50 was 2.9 µM.

**Q.** What about the TGI (OVCAR-3 ovarian) of the same molecule?
**A.** Its TGI is 7.22 µM.

**Q.** What about the GI50 (OVCAR-4 ovarian) of the same molecule?
**A.** The GI50 was 1.25 µM.

**Q.** What about the TGI (OVCAR-4 ovarian) of the same molecule?
**A.** The TGI was over 13.8 µM.

**Q.** What about the GI50 (OVCAR-5 ovarian) of the same molecule?
**A.** Its GI50 is 1.49 µM.

**Q.** What about the TGI (OVCAR-5 ovarian) of the same molecule?
**A.** Its TGI is 8.63 µM.

**Q.** And the GI50 (OVCAR-8 ovarian)?
**A.** The GI50 was 1.26 µM.

**Q.** What about the TGI (OVCAR-8 ovarian) of the same molecule?
**A.** The TGI was 6.92 µM.

**Q.** And the GI50 (PC-3 prostate)?
**A.** Its GI50 is 1.49 µM.

**Q.** And the TGI (PC-3 prostate)?
**A.** Its TGI is 8.59 µM.

**Q.** And the GI50 (RPMI-8226 leukemia)?
**A.** The GI50 was 2.17 µM.

**Q.** What about the TGI (RPMI-8226 leukemia) of the same molecule?
**A.** Its TGI is 10.6 µM.

**Q.** And the GI50 (RXF 393 renal)?
**A.** The GI50 was 1.28 µM.

**Q.** What about the TGI (RXF 393 renal) of the same molecule?
**A.** The TGI was 5.13 µM.

**Q.** What about the GI50 (SF-268 CNS) of the same molecule?
**A.** The GI50 was 2.55 µM.

**Q.** What about the TGI (SF-268 CNS) of the same molecule?
**A.** Its TGI is 14.1 µM.

**Q.** And the GI50 (SF-295 CNS)?
**A.** Its GI50 is 1.76 µM.

**Q.** What about the TGI (SF-295 CNS) of the same molecule?
**A.** Its TGI is over 12.2 µM.

**Q.** And the GI50 (SF-539 CNS)?
**A.** The GI50 was 0.943 µM.

**Q.** What about the TGI (SF-539 CNS) of the same molecule?
**A.** Its TGI is 5.69 µM.

**Q.** What about the GI50 (SK-MEL-2 melanoma) of the same molecule?
**A.** The GI50 was 0.668 µM.

**Q.** What about the TGI (SK-MEL-2 melanoma) of the same molecule?
**A.** Its TGI is 4.37 µM.

**Q.** And the GI50 (SK-MEL-28 melanoma)?
**A.** Its GI50 is 2.08 µM.

**Q.** What about the TGI (SK-MEL-28 melanoma) of the same molecule?
**A.** The TGI was 7.04 µM.

**Q.** And the GI50 (SK-MEL-5 melanoma)?
**A.** The GI50 was 1.16 µM.

**Q.** What about the TGI (SK-MEL-5 melanoma) of the same molecule?
**A.** The TGI was 4.74 µM.

**Q.** What about the GI50 (SK-OV-3 ovarian) of the same molecule?
**A.** Its GI50 is 3.44 µM.

**Q.** What about the TGI (SK-OV-3 ovarian) of the same molecule?
**A.** The TGI was 12.1 µM.

**Q.** And the GI50 (SN12C renal)?
**A.** The GI50 was 0.89 µM.

**Q.** What about the TGI (SN12C renal) of the same molecule?
**A.** Its TGI is 10.9 µM.

**Q.** And the GI50 (SNB-19 CNS)?
**A.** The GI50 was 6.95 µM.

**Q.** What about the TGI (SNB-19 CNS) of the same molecule?
**A.** The TGI was over 25 µM.

**Q.** What about the GI50 (SNB-75 CNS) of the same molecule?
**A.** Its GI50 is 2.39 µM.

**Q.** And the TGI (SNB-75 CNS)?
**A.** Its TGI is 10.2 µM.

**Q.** What about the GI50 (SR leukemia) of the same molecule?
**A.** Its GI50 is 0.964 µM.

**Q.** And the TGI (SR leukemia)?
**A.** Its TGI is 7.36 µM.

**Q.** What about the GI50 (SW-620 colon) of the same molecule?
**A.** Its GI50 is 1.25 µM.

**Q.** And the TGI (SW-620 colon)?
**A.** The TGI was over 17.8 µM.

**Q.** What about the GI50 (T-47D breast) of the same molecule?
**A.** Its GI50 is 2 µM.

**Q.** What about the TGI (T-47D breast) of the same molecule?
**A.** Its TGI is 8.19 µM.

**Q.** And the GI50 (TK-10 renal)?
**A.** Its GI50 is 2.57 µM.

**Q.** And the TGI (TK-10 renal)?
**A.** The TGI was 12.8 µM.

**Q.** What about the GI50 (U251 CNS) of the same molecule?
**A.** The GI50 was 3.33 µM.

**Q.** And the TGI (U251 CNS)?
**A.** Its TGI is over 15.3 µM.

**Q.** What about the GI50 (UACC-257 melanoma) of the same molecule?
**A.** The GI50 was 2.25 µM.

**Q.** And the TGI (UACC-257 melanoma)?
**A.** The TGI was 8.74 µM.

**Q.** And the GI50 (UACC-62 melanoma)?
**A.** The GI50 was 0.844 µM.

**Q.** And the TGI (UACC-62 melanoma)?
**A.** The TGI was 5.48 µM.

**Q.** And the GI50 (UO-31 renal)?
**A.** The GI50 was 0.874 µM.

**Q.** And the TGI (UO-31 renal)?
**A.** Its TGI is 5.27 µM.
